Source: patent US20170022159A1, “HETEROCYCLIC AMPHOTERIC COMPOUNDS” (Eastman Chemical Company, priority 2014, published 2017)
Read-outs that look alike come from different tables or passages of the source.

Columns and labels:
[1] = Foaming Properties of Surface-Active Agents (ASTM 1173-07), foam height; assay type: physicochemical
Excerpt: The Standard Test Method for Foaming Properties of Surface-Active Agents (ASTM 1173-07) was used to determine the foaming properties of the heterocyclic amphoteric compounds of the formula 1 described herein. This method generates foam under low-agitation conditions and is generally used for moderate- and high-foam surfactants. This test gathers data on initial foam height and foam decay. Foam decay provides information on foam stability.
The apparatus for carrying out this test includes a jacketed column and a pipet. The jacketed column serves as a receiver, while the pipet delivers the surface-active solution. Solutions of each surface-active agent were prepared. The solution of the heterocyclic amphoteric compound to be tested was added to the receiver (50 mL) and to the pipet (200 mL). The pipet was positioned above the receiver and opened. As the solution fell and made contact with the solution in the receiver, foam was generated. When the pipet was empty, the time was noted and an initial foam height was recorded. The foam height was recorded each minute for five minutes. Exact size specifications for the glassware can be found in ASTM 1173-07. The foam height results for each heterocyclic amphoteric compound 1 and representative standards are listed below in Tables 1 (0.1% concentration) and 2 (1% concentration).

[2] = for Percent amphoteric remaining: buffer
Method: The resulting mixture was placed in a 50° C. oven. Samples were taken periodically and analyzed for the amount of (4-lauroyloxy-1-methylpiperidinium-1-yl)acetate remaining by quantitative HPLC.

[3] = Fluorimetric determination of critical micelle concentration (DPH dye); assay type: physicochemical
Method: The critical micelle concentration (CMC) was also determined for each compound. The CMC is the concentration of surfactant above which micelles spontaneously form. CMC is an important characteristic of a surfactant. At surfactant concentrations below the CMC, surface tension varies widely with surfactant concentration. At concentrations above the CMC, surface tension remains fairly constant. A lower CMC indicates less surfactant is needed to saturate interfaces and form micelles. Typical CMC values are less than 1 weight percent (10,000 ppm).
The fluorimetric determination of CMC described by Chattopadhyay and London (Analytical Biochemistry, Vol. 139, pp. 408-412 (1984)) was used to obtain the critical micelle concentrations found in Table 3 below. This method employs the fluorescent dye 1,6-diphenyl-1,3,5-hexatriene (DPH) in a solution of the surface-active agent. The analysis is based on differences in fluorescence upon incorporation of the dye into the interior of the micelles. As the solution exceeds CMC, a large increase in fluorescence intensity is observed.

[4] = 1 g/L (0.1 weight %), t = 0 min
[5] = 1 g/L (0.1 weight %), t = 1 min
[6] = 1 g/L (0.1 weight %), t = 2 min
[7] = 1 g/L (0.1 weight %), t = 3 min
[8] = 1 g/L (0.1 weight %), t = 4 min
[9] = 1 g/L (0.1 weight %), t = 5 min
[10] = 10 g/L (1.0 weight %), t = 0 min
[11] = 10 g/L (1.0 weight %), t = 1 min
[12] = 10 g/L (1.0 weight %), t = 2 min
[13] = 10 g/L (1.0 weight %), t = 3 min
[14] = 10 g/L (1.0 weight %), t = 4 min
[15] = 10 g/L (1.0 weight %), t = 5 min

CCCCCCCCCCCC(=O)OC1CC[N+](C)(CC(=O)[O-])CC1 (centres unmarked) [Example 9, (4-lauroyloxy-1-methylpiperidinium-1-yl)acetate]
Foam height (cm) at time t (min) [1, 4]: 17.0 cm | Foam height (cm) at time t (min) [1, 5]: 17.0 cm | Foam height (cm) at time t (min) [1, 6]: 16.5 cm | Foam height (cm) at time t (min) [1, 7]: 16.5 cm | Foam height (cm) at time t (min) [1, 8]: 16.0 cm | Foam height (cm) at time t (min) [1, 9]: 16.0 cm | Foam height (cm) at time t (min) [1, 10]: 16.5 cm | Foam height (cm) at time t (min) [1, 11]: 16.0 cm | Foam height (cm) at time t (min) [1, 12]: 16.0 cm | Foam height (cm) at time t (min) [1, 13]: 15.5 cm | Foam height (cm) at time t (min) [1, 14]: 15.5 cm | Foam height (cm) at time t (min) [1, 15]: 15.5 cm | Percent amphoteric remaining ([2]; 0 h, pH 4.5): 100% | Percent amphoteric remaining ([2]; 336 h, pH 4.5): 98% | Percent amphoteric remaining ([2]; 1008 h, pH 4.5): 96% | Percent amphoteric remaining ([2]; 1344 h, pH 4.5): 85% | Loss of compound (in words) ([2]; extended incubation in pH 4.5 water at 50° C.): limited loss

3-(cocoyloxypropyldimethylammonio)acetate [Comparative Example 2, reference compound]
Percent amphoteric remaining ([2]; 0 h, pH 5): 100% | Percent amphoteric remaining ([2]; 336 h, pH 5): 74% | Percent amphoteric remaining ([2]; 1344 h, pH 5): 73% | Loss of compound (in words) ([2]; milder conditions (pH 5, 45° C.)): significant loss

(4-cocoyloxy-1-methylpiperidinium-1-yl)acetate [Example 3]
Foam height (cm) at time t (min) [1, 4]: 16.5 cm | Foam height (cm) at time t (min) [1, 5]: 16.0 cm | Foam height (cm) at time t (min) [1, 6]: 15.5 cm | Foam height (cm) at time t (min) [1, 7]: 15.5 cm | Foam height (cm) at time t (min) [1, 8]: 15.5 cm | Foam height (cm) at time t (min) [1, 9]: 15.5 cm | Foam height (cm) at time t (min) [1, 10]: 18.5 cm | Foam height (cm) at time t (min) [1, 11]: 18.0 cm | Foam height (cm) at time t (min) [1, 12]: 17.5 cm | Foam height (cm) at time t (min) [1, 13]: 17.0 cm | Foam height (cm) at time t (min) [1, 14]: 17.0 cm | Foam height (cm) at time t (min) [1, 15]: 17.0 cm | CMC [3]: 0.062 mM | CMC (ppm) [3]: 22.9 ppm

CCCCCCCCCCCC(=O)OCC1CCC[N+](C)(CC(=O)[O-])C1 (centres unmarked) [Example 11, (3-lauroyloxymethyl-1-methylpiperidinium-1-yl)acetate]
Foam height (cm) at time t (min) [1, 4]: 18.5 cm | Foam height (cm) at time t (min) [1, 5]: 17.5 cm | Foam height (cm) at time t (min) [1, 6]: 17.5 cm | Foam height (cm) at time t (min) [1, 7]: 17.0 cm | Foam height (cm) at time t (min) [1, 8]: 16.5 cm | Foam height (cm) at time t (min) [1, 9]: 16.0 cm | Foam height (cm) at time t (min) [1, 10]: 19.0 cm | Foam height (cm) at time t (min) [1, 11]: 18.0 cm | Foam height (cm) at time t (min) [1, 12]: 18.0 cm | Foam height (cm) at time t (min) [1, 13]: 17.5 cm | Foam height (cm) at time t (min) [1, 14]: 17.5 cm | Foam height (cm) at time t (min) [1, 15]: 17.5 cm | CMC [3]: 0.248 mM | CMC (ppm) [3]: 95.0 ppm

(3-cocoyloxymethyl-1-methylpiperidinium-1-yl)acetate [Example 5]
Foam height (cm) at time t (min) [1, 4]: 16.5 cm | Foam height (cm) at time t (min) [1, 5]: 16.0 cm | Foam height (cm) at time t (min) [1, 6]: 15.5 cm | Foam height (cm) at time t (min) [1, 7]: 15.5 cm | Foam height (cm) at time t (min) [1, 8]: 15.0 cm | Foam height (cm) at time t (min) [1, 9]: 15.0 cm | Foam height (cm) at time t (min) [1, 10]: 18.0 cm | Foam height (cm) at time t (min) [1, 11]: 17.5 cm | Foam height (cm) at time t (min) [1, 12]: 17.0 cm | Foam height (cm) at time t (min) [1, 13]: 17.0 cm | Foam height (cm) at time t (min) [1, 14]: 17.0 cm | Foam height (cm) at time t (min) [1, 15]: 16.5 cm | CMC [3]: 0.062 mM | CMC (ppm) [3]: 23.7 ppm

CCCCCCCCCCCCOS(=O)(=O)[O-].[Na+] [sodium lauryl sulfate, reference compound]
CMC [3]: 8.27 mM | CMC (ppm) [3]: 2386 ppm

(4-cocoyloxymethyl-1-methylpiperidinium-1yl)acetate [Example 7]
Foam height (cm) at time t (min) [1, 4]: 16.0 cm | Foam height (cm) at time t (min) [1, 5]: 14.5 cm | Foam height (cm) at time t (min) [1, 6]: 12.5 cm | Foam height (cm) at time t (min) [1, 7]: 9.0 cm | Foam height (cm) at time t (min) [1, 8]: 6.0 cm | Foam height (cm) at time t (min) [1, 9]: 4.0 cm | Foam height (cm) at time t (min) [1, 10]: 18.0 cm | Foam height (cm) at time t (min) [1, 11]: 17.0 cm | Foam height (cm) at time t (min) [1, 12]: 17.0 cm | Foam height (cm) at time t (min) [1, 13]: 17.0 cm | Foam height (cm) at time t (min) [1, 14]: 16.5 cm | Foam height (cm) at time t (min) [1, 15]: 16.5 cm | CMC [3]: 0.050 mM | CMC (ppm) [3]: 19.2 ppm

CCCCCCCCCCCCOS(=O)(=O)O.N [ammonium lauryl sulfate, reference compound]
CMC [3]: 1.38 mM | CMC (ppm) [3]: 392 ppm

(4-lauramido-1-methylpiperidinium-1-yl)acetate [Example 17]
CMC [3]: 1.54 mM | CMC (ppm) [3]: 566.5 ppm

cocamidopropyl betaine [reference compound]
Foam height (cm) at time t (min) [1, 4]: 17.0 cm | Foam height (cm) at time t (min) [1, 5]: 16.0 cm | Foam height (cm) at time t (min) [1, 6]: 16.0 cm | Foam height (cm) at time t (min) [1, 7]: 16.0 cm | Foam height (cm) at time t (min) [1, 9]: 15.5 cm | Foam height (cm) at time t (min) [1, 10]: 17.5 cm | Foam height (cm) at time t (min) [1, 11]: 16.5 cm | Foam height (cm) at time t (min) [1, 13]: 16.0 cm | Foam height (cm) at time t (min) [1, 14]: 16.0 cm | Foam height (cm) at time t (min) [1, 15]: 16.0 cm | CMC [3]: 0.069 mM | CMC (ppm) [3]: 24.5 ppm
